# How the values were obtained:
# HDFn cells [1] = assay: Senostatic Profile Assay (senescence markers Ki67, p21, p16, SAβG under chronic supplementation); format: cell-based, Human; conditions: for percentage of SAβG positive HDFn cells: untreated 9.8%±2.7
# Description: (§1) HDFn cells (C0045C, Thermo Scientific, US) were obtained and proliferated to passage 32 (population doubling 58) in standard DMEM proliferation medium (10% FBS) at standard culture conditions (37°° C., 20% O2, 5% CO2). At each passage, cells were cryopreserved and banked. The cells were deemed replicatively senescent at passage 32. When required, cryovial contents was thawed gradually into 5 ml pre-warmed 10% FBS media with gentle pipetting and centrifuged. The supernatant was discarded, and the cell pellet was resuspended into 10% media and cells were counted using a hemocytometer and trypan blue.
# Treatment conditions tested in this assay were 0, 0.5, 3.0 and 30 μM of EGT as a constant supplementation in standard DMEM (10% FBS). HDFn cells were thawed at passage 20 and seeded at 1.5×10^5 cells per flask. Three flasks per condition were seeded. Media was changed every three days. At passages 22, 24, and 26, the HDFn cells were seeded onto 48-well plates at 10,000 cells per well in triplicates per flask, and cultured in DMEM media containing 0, 0.5, 3.0, and 30 μM of EGT, respectively. The cells were proliferated until 70% confluence or for 7 days. The cells were then washed with PBS and fixed with 2% PFA, and stored at 4° C. until immunostaining. For β-galactosidase staining, the staining solution was added onto the cells immediately after fixation and incubated at 37° C. for 24 h. The staining solution was removed, and the wells filled with PBS until imaging. As a positive control for senescence phenotype, one set of wells from the untreated flasks were seeded. At 70% confluence, the cells were treated with 600 μM of hydrogen peroxide in serum-free DMEM for 2 h, then incubated with standard DMEM proliferation medium for 5 days to allow the senescence phenotype to develop. The cells were fixed and stained in the same manner as the other treatment conditions.
# (§2) The panel of senescence markers, Ki67, p16 and p21 were analyzed by immunohistochemical staining using an HRP/DAB kit (ab64264, Abcam, UK). • Antibody details • 1) Ki67—1:1000 dilution, anti-rabbit, ab92742, Abcam; • 2) p16—1:500 dilution, anti-rabbit, ab 108349, Abcam; • 3) p21—1:100 dilution, anti-rabbit, ab 109542, Abcam.
# (§3) The cells were counterstained with hematoxylin.
# (§4) The senescence-associated β-galactosidase solutions and staining was performed according to Dimri et al, A biomarker that identifies senescent human cells in culture and in aging skin in vivo, Proc. Natl. Acad. Sci. 1995 Sep. 26; 92 (20): 9363-9367. The cells were counterstained with Nuclear Fast Red.
# (§5) All staining were imaged on an EVOS XL core microscope at 100× magnification.
# (§6) The images were white balanced using a macro on ImageJ. Cells were manually counted using the cell counter plugin and recorded. Graphs and statistics were created using GraphPad Prism 5. For each dataset, a two-way ANOVA was performed with Bonferroni posthoc test against the untreated control. P-values on the graphs are shown as *p<0.05, ** p<0.01, *** p<0.001.
# HDFn cells [2] = assay: Senolytic Profile Assay (cell counts and senescence markers after 3 days of acute treatment at passage 31); format: cell-based, Human; conditions: for Ki67-positive population: day 9 to 12 timepoint, 0 μM: 3.4%±1.5, p<0.001; for percentage of p21 positive HDFn cells / percentage of p16 positive HDFn cells: timepoint 1 (day 0 to 3); for percentage of p21 positive HDFn cells: 0 μM: 63.1%±9.3; for percentage of p16 positive HDFn cells: 0 μM: 67.8%±4.7; for cell counts: 3 days of treatment
# Description: as §1
# Treatment conditions tested in this assay were 0, 3, 30 and 300 μM of EGT as an acute supplementation over 3 days in standard DMEM (10% FBS). Positive controls for senolytic activity were 13 μM of Navitoclax and 600 μM of Fisetin. A 0.1% DMSO condition was introduced as a vehicle control for Fisetin. At passage 31, the HDFn cells were seeded at 10,000 cells per well in triplicate wells onto 48-well plates. After 2 days of acclimatization, cells were treated for 3 days with the conditions above. The cells were then washed with PBS and fixed with 2% PFA. The wells were filled with PBS and stored at 4° C. until immunostaining. For β-galactosidase staining, the staining solution was added onto the cells immediately after fixation and incubated at 37° C. for 24 h. The staining solution was removed, and the wells filled with PBS until imaging. This was repeated for timepoints day 0 to 3, day 6 to 9, and day 9 to 12.
# as §2, §3, §4, §5, §6
compound,measurement,setting,value
"C[N+](C)(C)[C@@H](Cc1c[nH]c(=S)[nH]1)C(=O)[O-] [EGT, L-Ergothioneine]",effect on the percentage of p16 positive HDFn cells,"HDFn cells [1]; across all three passages (22, 24, 26), EGT 0.5, 3.0, 30 μM",did not robustly affect
same,change of percentage of Ki67 positive HDFn cells compared with the untreated control,"HDFn cells [1]; all three passages (22, 24, 26), EGT 0.5, 3.0, 30 μM constant supplementation",did not result in statistically significant changes
same,senostatic effect,HDFn cells [1]; low chronic doses (0.5-30 μM) in HDFn cells,can confer senostatic effects
same,reduction of the percentage of p21 positive HDFn cells,"HDFn cells [1]; passage 22, 0.5 μM EGT, p<0.001",16.5%
same,percentage of p21 positive HDFn cells,"HDFn cells [1]; passage 22, 0.5 μM EGT, untreated 82.5%±2.3, mean±SEM",66.0%±2.4
same,reduction of the percentage of p21 positive HDFn cells,"HDFn cells [1]; passage 22, 3 μM EGT, p<0.001",20.1%
same,reduction of the percentage of p21 positive HDFn cells,"HDFn cells [1]; passage 22, 30 μM EGT, p<0.001",21.8%
same,reduction in p16-positive cells,"HDFn cells [1]; passage 24, 0.5 μM EGT, p<0.001",15%
same,change of percentage of p21 positive HDFn cells,"HDFn cells [1]; passage 24 or 26, EGT 0.5, 3.0, 30 μM",did not result in statistically significant changes
same,percentage of SAβG positive HDFn cells,"HDFn cells [1]; passage 26, 0.5 μM EGT, p<0.001",4.8%±5.7
same,percentage of SAβG positive HDFn cells,"HDFn cells [1]; passage 26, 3.0 μM EGT, p<0.001",3.5%±2.0
same,percentage of SAβG positive HDFn cells,"HDFn cells [1]; passage 26, 30 μM EGT, p<0.001",5.0%±2.9
same,mean SAβG reduction,"HDFn cells [1]; passage 26, mean over 0.5, 3.0 and 30 μM EGT",50%
same,senolytic activity,"HDFn cells [2]; HDFn cells at passage 31, at up to 300 μM",not senolytic
same,Ki67-positive population,"HDFn cells [2]; passage 31, 30 μM EGT",9.2%±3.8
same,percentage of p21 positive HDFn cells,"HDFn cells [2]; passage 31, 30 μM EGT",29.1%±7.4
same,percentage of p16 positive HDFn cells,"HDFn cells [2]; passage 31, 30 μM EGT",7.0%±2.8
same,Ki67-positive population,"HDFn cells [2]; passage 31, 300 μM EGT",11.4%±2.6
same,percentage of p21 positive HDFn cells,"HDFn cells [2]; passage 31, 300 μM EGT",27.0%±2.0
same,percentage of p16 positive HDFn cells,"HDFn cells [2]; passage 31, 300 μM EGT",11.7%±5.9
same,cell counts,"HDFn cells [2]; passage 31, 3, 30 and 300 μM EGT vs 0 μM",did not change much
same,effect on the percentage of SAβG positive HDFn cells,"HDFn cells [2]; passage 31, EGT 3, 30, 300 μM, any timepoint",no statistically significant effect
"O=c1c(O)c(-c2ccc(O)c(O)c2)oc2cc(O)ccc12 [FIS, Fisetin, reference compound]",cell counts,"HDFn cells [2]; passage 31, 600 μM Fisetin, positive control",dramatically decreased
"CC1(C)CCC(c2ccc(Cl)cc2)=C(CN2CCN(c3ccc(C(=O)NS(=O)(=O)c4ccc(N[C@H](CCN5CCOCC5)CSc5ccccc5)c(S(=O)(=O)C(F)(F)F)c4)cc3)CC2)C1 [NAV, Navitoclax, reference compound]",cell counts,"HDFn cells [2]; passage 31, 13 μM Navitoclax, positive control",dramatically decreased
"OO [hydrogen peroxide, reference compound]",SAβG levels (senescence-associated β-galactosidase positive HDFn cells),"HDFn cells [1]; 600 μM hydrogen peroxide for 2 h, then 5 days, positive control for senescence phenotype",remained low
